In US5225411A, “Disubstituted polymethyleneimines” (priority 1990, dated 1993):
Several values for one entry are separate records, joined by “and”; a condition that tells them apart may be missing. Equal entries are not always repeated. Where two headings read alike, the source gives them in different places.

Key:
[1] = tested on: murine leukaemia P388/ADR
From the text: D) In Vivo Reversion of the Acquired Resistance to Medicaments
10^6 cells are implanted by the intraperitoneal route into female B6 D2 F1 mice on day 0 and treatment commences the following day in accordance with the administration schemes indicated.
The parameter measured is the survival time, allowing the calculation of T/C: [formula]
The variation in weight is calculaed; it provides information on the toxicity of the treatment. The control groups comprise from 15 to 27 animals and the treated groups from 5 to 10 animals.
Six independent experiments were carried out. The assays were performed over 4 days in accordance with the scheme D1-4 the tumour cells being implanted on DO and the reversing agent and the cytotoxic agnet being administered on D1, D2, D3, and D4.

[2] = tested on: murine leukaemia P 388/ADR 10; assay: Evaluation of the increase in cytotoxicity of adriamycin on the line P 388/ADR-10 in vitro (reversion factor); assay type: cell-based; conditions: P 388/ADR 10, resistance induced by adriamycin
line P 388/ADR 10 = assay: Flow cytometry, increase in fluorescence of ADR on the line P 388/ADR 10; assay type: cell-based, murine; conditions: ADR 50 μM, 5 h
Protocol: (§1) By measuring that fluorescence it is possible to obtain a relative measurement of the intracellular concentration of ADR.
(§2) […] After 5 hours' incubation, the intracellular uptake of adriamycin was evaluated by FCM.
(§3) The analysis of each of the samples was carried out on a total of 10,000 cells at a speed of 1000 cells/sec.
(§4) The results were presented in the form of linear histograms of the intracellular ADR fluorescence.
(§5) Expression of the Results
(§6) For each of the histograms, the channel mean fluorescence was determined by the apparatus information system. For all experiments:
(§7) A negative control (cells without ADR) fixed the autofluorescence threshold.
(§8) A positive control (cells with ADR) determined the MEAN value=MN1.
(§9) The "test" tubes (cells with ADR and with compound) were used to determine, for each of the compounds and at each of the concentrations, the MEAN values=MN2.
(§10) The results are expressed in the form of variations from the mean fluorescence obtained for each of the "test" tubes (MN2) in relation to the mean fluorescence obtained with the […] (MNl) : VAR-MEAN=MN2 -MN1. The parameter expressed is thus the increase in the fluorescence of adriamycin in the presence of the tested compounds.

[3] = tested on: Chinese Hamster Pulmonary Line DC-3F/AD; assay: Increase in the cytotoxicity of actinomycin D on the Chinese hamster pulmonary line DC-3F/AD; assay type: cell-based; conditions: 4 days;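 note: DC-3F/AD is an extremely resistant cell line whose resistance factor exceeds 10,000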
From the text: The cytotoxic agent used was actinomycin D.
Line DC-3F/AD is an extremely resistant line. Its resistance factor is higher than 10,000.

[4] = tested on: murine leukaemia P 388/ADR 10; assay: Evaluation of the increase in cytotoxicity of adriamycin on the line P 388/ADR-10 in vitro (reversion factor); assay type: cell-based; conditions: adriamycin, P 388/ADR-10, 48 h, TOX = toxic
Protocol: In this study, the cytotoxicity of adriamycin was measured in the absence and in the presence of the reversing compound.
The compounds tested for their capacity to reverse MDR are added at the same time as the cytotoxic agent. The cells are then incubated for 48 hours.

line DC-3F/AD = assay: Flow cytometry, increase in fluorescence of ADR on the line DC-3F/AD; assay type: cell-based, Chinese Hamster; conditions: ADR 50 μM, 5 h
Protocol: as §1, §2, §3, §4, §5, §6, §7, §8, §9, §10

[5] = ADR 2 mg/kg alone, i.p., D1-4, n=2
[6] = ADR 4 mg/kg alone, i.p., D1-4, n=6
[7] = Example 1 50 mg/kg + ADR 2 mg/kg, i.p., D1-4, n=2
[8] = Example 1 50 mg/kg + ADR 4 mg/kg, i.p., D1-4, n=2
[9] = Example 1 50 mg/kg alone, i.p., D1-4, n=2
[10] = Example 1 100 mg/kg + ADR 2 mg/kg, i.p., D1-4, n=2
[11] = Example 1 100 mg/kg + ADR 4 mg/kg, i.p., D1-4, n=6
[12] = Example 1 100 mg/kg alone, i.p., D1-4, n=6
[13] = Example 1 200 mg/kg + ADR 2 mg/kg, i.p., D1-4, n=4
[14] = Example 1 200 mg/kg alone, i.p., D1-4, n=4

In the case of `COc1cccc2c1C(=O)c1c(O)c3c(c(O)c1C2=O)C[C@@](O)(C(=O)CO)C[C@@H]3O[C@H]1C[C@H](N)[C@H](O)[C@H](C)O1` [ADR, adriamycin, reference compound], the “T/C, extreme values” [1, 5] is reported as 116.7-120%, the “T/C, mean ± s.e.m.” value [1, 5] is reported as 118.3% and the “T/C, median” value [1, 5] is reported as 118.3%. For the same compound, the “T/C, extreme values” [1, 6] was 105-130%, the “T/C, mean ± s.e.m.” value [1, 6] was 115.1 ± 3.9% and the “T/C, median” value [1, 6] was 112.5%. The “antitumour activity” value ([1]; ADR alone, P388/ADR) was “not exhibiting any antitumour activity”, the T/C ([1]; ADR alone, i.p.) was < 120% and the “factor of resistance in relation to the sensitive line” value [2] was 260.

For `C=CCNc1nc(NCC=C)nc(N2CCC(NCC(c3ccc(F)cc3)c3ccc(F)cc3)CC2)n1` [Example 1, 1-[4,6-bis(allylamino)-2-s-triazinyl]-4-[2,2-bis(p-fluorophenyl)ethylamino]piperidine], the “Increase in fluorescence of ADR (VAR-MEAN = MN2 - MN1)” value (from here on “Increase in fluorescence of ADR”) (line P 388/ADR 10; compound 2 μM) was 53.1, the “Increase in fluorescence of ADR” value (line P 388/ADR 10; compound 5 μM) was 74.1 and the “Increase in fluorescence of ADR” value (line P 388/ADR 10; compound 10 μM) was 85.49. The “Increase in fluorescence of ADR” value (line P 388/ADR 10; compound 20 μM) was 78.5, the “Reversion Factor (RF)” value ([3]; compound 2.5 μM) was 171 and the “Reversion Factor (RF)” value ([3]; compound 5 μM) was 905. The “Reversion Factor (RF)” value ([3]; compound 10 μM) was 2575, the “Reversion Factor (RF)” value ([3]; compound 20 μM) was “TOX” and the “Reversion Factor (RF)” value ([4]; compound 2.5 μM) was 110.8. For the same compound, the “Reversion Factor (RF)” value ([4]; compound 5 μM) was 244.4, the “Reversion Factor (RF)” value ([4]; compound 10 μM) was 170.7 and the “T/C, extreme values” [1, 7] was 120-141.7%. For the same compound, the “T/C, mean ± s.e.m.” value [1, 7] was 130.9%, the “T/C, median” value [1, 7] was 130.9% and the “T/C, extreme values” [1, 8] was 116.7-140%. For the same compound, the “T/C, mean ± s.e.m.” value [1, 8] was 128.4%, the “T/C, median” value [1, 8] was 128.4% and the “T/C, extreme values” [1, 9] was 90-108.3%. The “T/C, mean ± s.e.m.” value [1, 9] was 99.2%, the “T/C, median” value [1, 9] was 99.2% and the “T/C, extreme values” [1, 10] was 116.7-140%. The “T/C, mean ± s.e.m.” value [1, 10] was 128.4%, the “T/C, median” value [1, 10] was 128.4% and the “T/C, extreme values” [1, 11] was 120-150%. The “T/C, mean ± s.e.m.” value [1, 11] was 134.2 ± 4.4%, the “T/C, median” value [1, 11] was 134.2% and the “T/C, extreme values” [1, 12] was 85-100%. The “T/C, mean ± s.e.m.” value [1, 12] was 91.7 ± 2.8%, the “T/C, median” value [1, 12] was 90% and the “increase in activity as a result of the compound of Example 1” value ([1]; Example 1 200 mg/kg + ADR 2 mg/kg, i.p.) was 30.6%. The “T/C, extreme values” [1, 13] was 140-155.6%, the “T/C, mean ± s.e.m.” value [1, 13] was 148.9% and 148.9 ± 3.2% and the “T/C, median” value [1, 13] was 150%. The “activity” value ([1]; Example 1 200 mg/kg + ADR 2 mg/kg, T/C ≥ 135% good activity) was “good activity”, the “T/C, extreme values” [1, 14] was 80-88.9% and the “T/C, mean ± s.e.m.” value [1, 14] was 83.5 ± 2.2%. The “T/C, median” value [1, 14] was 82.5%, the “toxicity” value ([1]; Example 1 alone, 200 mg/kg, i.p., T/C ≤ 85% toxic) was “only moderately toxic” and the “antitumour activity” value ([1]; Example 1 alone, 50 to 200 mg/kg, i.p.) was “does not possess any antitumour activity”. For the same compound, the “activity” value ([1]; Example 1 at 50 and 100 mg/kg (Table V: with ADR), T/C ≥ 120% moderate activity) was “modest activity”, the “Increase in fluorescence of ADR” value (line DC-3F/AD; compound 2 μM) was 18.27 and the “Increase in fluorescence of ADR” value (line DC-3F/AD; compound 5 μM) was 26.13. The “Increase in fluorescence of ADR” value (line DC-3F/AD; compound 10 μM) was 35.57 and the “Increase in fluorescence of ADR” value (line DC-3F/AD; compound 20 μM) was 43.63.

`C=CCNc1nc(NCCC)nc(N2CCC(NCC(c3ccccc3)c3ccccc3)CC2)n1` [Example 7, 1-(4-propylamino-6-allylamino-2-s-triazinyl)-4-(2,2-diphenylethylamino)piperidine] was tested, and the “Increase in fluorescence of ADR” value (line P 388/ADR 10; compound 2 μM) was 48.75, the “Increase in fluorescence of ADR” value (line P 388/ADR 10; compound 5 μM) was 72.6 and the “Increase in fluorescence of ADR” value (line P 388/ADR 10; compound 10 μM) was 80.9. The “Increase in fluorescence of ADR” value (line P 388/ADR 10; compound 20 μM) was 87.3, the “Reversion Factor (RF)” value ([3]; compound 5 μM) was 992 and the “Reversion Factor (RF)” value ([3]; compound 10 μM) was 2339. The “Reversion Factor (RF)” value ([4]; compound 2.5 μM) was 102.8, the “Reversion Factor (RF)” value ([4]; compound 5 μM) was 135.6 and the “Reversion Factor (RF)” value ([4]; compound 10 μM) was “TOX”. The “Increase in fluorescence of ADR” value (line DC-3F/AD; compound 2 μM) was 14.47, the “Increase in fluorescence of ADR” value (line DC-3F/AD; compound 5 μM) was 26.0 and the “Increase in fluorescence of ADR” value (line DC-3F/AD; compound 10 μM) was 34.17. For the same compound, the “Increase in fluorescence of ADR” value (line DC-3F/AD; compound 20 μM) was 36.63.

With `C=CCNc1nc(NCCC)nc(N2CCC(NCCC(c3ccccc3)c3ccccc3)CC2)n1` [Example 8, 1-(4-propylamino-6-allylamino-2-s-triazinyl)-4-(3,3diphenylpropylamino)piperidine] the “Increase in fluorescence of ADR” value (line P 388/ADR 10; compound 2 μM) was 38.9, the “Increase in fluorescence of ADR” value (line P 388/ADR 10; compound 5 μM) was 60.1 and the “Increase in fluorescence of ADR” value (line P 388/ADR 10; compound 10 μM) was “TOX”. The “Increase in fluorescence of ADR” value (line P 388/ADR 10; compound 20 μM) was “TOX”, the “Reversion Factor (RF)” value ([3]; compound 2.5 μM) was 16.5 and the “Reversion Factor (RF)” value ([3]; compound 5 μM) was “TOX”. The “Reversion Factor (RF)” value ([3]; compound 10 μM) was “TOX”, the “Reversion Factor (RF)” value ([3]; compound 20 μM) was “TOX” and the “Reversion Factor (RF)” value ([4]; compound 2.5 μM) was 75.9. For the same compound, the “Reversion Factor (RF)” value ([4]; compound 5 μM) was “TOX”, the “Reversion Factor (RF)” value ([4]; compound 10 μM) was “TOX” and the “Increase in fluorescence of ADR” value (line DC-3F/AD; compound 2 μM) was 4.5. The “Increase in fluorescence of ADR” value (line DC-3F/AD; compound 5 μM) was 17.85, the “Increase in fluorescence of ADR” value (line DC-3F/AD; compound 10 μM) was 27.15 and the “Increase in fluorescence of ADR” value (line DC-3F/AD; compound 20 μM) was “TOX”.

`C=CCNc1cc(N2CCC(NCCC(c3ccccc3)c3ccccc3)CC2)nc(NCC=C)n1` [Example 9, 1-(bis-2,4-allylamino-6-pyrimidinyl)-4-(3,3-diphenylpropylamino)piperidine] was tested, and the “Increase in fluorescence of ADR” value (line P 388/ADR 10; compound 2 μM) was 39.2, the “Increase in fluorescence of ADR” value (line P 388/ADR 10; compound 5 μM) was 55.8 and the “Increase in fluorescence of ADR” value (line P 388/ADR 10; compound 10 μM) was 65.8. For the same compound, the “Increase in fluorescence of ADR” value (line P 388/ADR 10; compound 20 μM) was “TOX”, the “Reversion Factor (RF)” value ([3]; compound 2.5 μM) was 94 and the “Reversion Factor (RF)” value ([3]; compound 5 μM) was 472. For the same compound, the “Reversion Factor (RF)” value ([3]; compound 10 μM) was “TOX”, the “Reversion Factor (RF)” value ([4]; compound 2.5 μM) was 80.4 and the “Reversion Factor (RF)” value ([4]; compound 5 μM) was “TOX”. For the same compound, the “Reversion Factor (RF)” value ([4]; compound 10 μM) was “TOX”, the “Increase in fluorescence of ADR” value (line DC-3F/AD; compound 2 μM) was 7.2 and the “Increase in fluorescence of ADR” value (line DC-3F/AD; compound 5 μM) was 15.1. The “Increase in fluorescence of ADR” value (line DC-3F/AD; compound 10 μM) was 16.3 and the “Increase in fluorescence of ADR” value (line DC-3F/AD; compound 20 μM) was 26.2.

For `C=CCNc1nc(NCC=C)nc(N2CCC(NCC(c3cc(OC)cc(OC)c3)c3ccccc3C)CC2)n1` (stereo not shown) [Example 10, 1-[4,6-bis(allylamino)-2-s-triazinyl]-4-[2-(3,5-dimethoxyphenyl)-2-(2-methylphenyl)ethylamino]piperidine], the “Increase in fluorescence of ADR” value (line P 388/ADR 10; compound 2 μM) was 52.0, the “Increase in fluorescence of ADR” value (line P 388/ADR 10; compound 5 μM) was 75.3 and the “Increase in fluorescence of ADR” value (line P 388/ADR 10; compound 10 μM) was 84.0. The “Increase in fluorescence of ADR” value (line P 388/ADR 10; compound 20 μM) was 78.0, the “Reversion Factor (RF)” value ([3]; compound 2.5 μM) was 259 and the “Reversion Factor (RF)” value ([3]; compound 5 μM) was 1347. For the same compound, the “Reversion Factor (RF)” value ([3]; compound 10 μM) was “TOX”, the “Reversion Factor (RF)” value ([4]; compound 2.5 μM) was 125.1 and the “Reversion Factor (RF)” value ([4]; compound 5 μM) was 75.3. The “Reversion Factor (RF)” value ([4]; compound 10 μM) was “TOX”, the “Increase in fluorescence of ADR” value (line DC-3F/AD; compound 2 μM) was 14.8 and the “Increase in fluorescence of ADR” value (line DC-3F/AD; compound 5 μM) was 24.7. The “Increase in fluorescence of ADR” value (line DC-3F/AD; compound 10 μM) was 26.5 and the “Increase in fluorescence of ADR” value (line DC-3F/AD; compound 20 μM) was 28.2.
